Data set [1] deals with neutrophil influx. Description: Murine air pouch model of neutrophil chemotaxis (p.o.). Particulars: for total neutrophil counts in the blood: high doses, compared to control animals; for neutrophil influx / neutrophil influx at high oral dose: p.o. The data set is classed as in vivo, male CD-1 mice. As to the method:
Compounds 1 (SX-517) and 2 (SX-576) were also assayed in an in vivo air-pouch model of inflammation. SX-517 and SX-576 were able to attenuate neutrophil influx in the air-pouch model by about 50% at an oral dose of 0.2 and 0.05 mg/kg, respectively. […] More specifically, the procedure was performed by forming an air pouch on the backs of male CD-1 mice via the subcutaneous injection of air (2 mL). The next day, an additional subcutaneous injection of air (1.5 mL) was performed to reinflate the air pouch. The mice were given either vehicle control (Labrasol®) or test compound solubilized in Labrasol® via oral gavage. After 3 hours, either sterile phosphate buffered saline (PBS, 1 ml) or 2% carrageenan in sterile PBS (1 mL) was injected into the air pouch. After 4 hours, the mice were sedated with ketamine, and sacrificed by cervical dislocation. The exudate in the air pouch was collected by syringe, with an additional 2 mL wash with sterile PBS. The neutrophils were stained with trypan blue and counted on a hemocytometer under 20× magnification.

Data set [2] deals with T1, CXCR2 (Homo sapiens (Human), UniProt P25025). Description: Agonist activity: intracellular calcium release in human neutrophils in the absence of GROα. Conditions: relative to the response to 25 nM GROα. The data set is classed as cell-based. On the procedure: In Tables 1-5, the IC50 or EC50 values were determined using the following assay. This assay measures intracellular calcium release via fluorescence as an indication of CXCR2 receptor activation by the physiologic agonist GROα. The assay is a Ca^2+ mobilization assay that measures changes in intracellular Ca^2+ with a FlexStation II scanning fluorometer using a FLIPR-3 Calcium Assay Kit (Molecular Devices, Sunnyvale, Calif.). The procedure is as follows:
9. The maximum change in fluorescence, expressed in arbitrary units over baseline (Max-Min) was used to determine the GROα response. […] Therapeutic Activity
The maximum change in fluorescence, expressed in arbitrary units over baseline (Max-Min), was used to determine the GROα response.
Intracellular calcium release is a hallmark of CXCR2 activation by endogenous agonists, such as GROα and IL-8.
Target sequence in this assay (P25025 whole entry): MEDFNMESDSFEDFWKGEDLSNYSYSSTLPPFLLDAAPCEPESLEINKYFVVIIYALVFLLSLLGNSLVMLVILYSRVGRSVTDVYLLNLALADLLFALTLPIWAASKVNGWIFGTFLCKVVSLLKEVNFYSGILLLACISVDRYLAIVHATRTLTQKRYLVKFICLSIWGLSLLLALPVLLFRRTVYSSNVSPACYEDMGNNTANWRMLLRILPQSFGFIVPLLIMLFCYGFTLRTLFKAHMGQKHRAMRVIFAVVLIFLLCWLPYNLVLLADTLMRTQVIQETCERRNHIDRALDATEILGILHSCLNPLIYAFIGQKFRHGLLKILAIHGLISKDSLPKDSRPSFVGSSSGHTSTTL
(In general: Calcium flux is commonly read through the fluorescence of an indicator in the cells.)

Data set [3] addresses T1, CXCR2. Description: Inhibition of GROα-mediated intracellular calcium release in human neutrophils (FLIPR-3 Ca2+ mobilization). The data set is classed as cell-based.
Target sequence in this assay (P25025 whole entry): as above
A short description of data set [4]: Crossover pharmacokinetic experiment in Beagle dogs. The data set is classed as in vivo. As to the method:
In this study, male Beagle dogs (n=5) were dosed intravenously on study day 1 with SX-576 in dimethylformamide/PEG400/saline (40:40:20) at a dose level of 5 mg/kg and a dose volume of 0.5 mL/kg. Blood samples were taken predose, and at time points 30, 60, 90, 120, 180, 360, 540 and 720 minutes. The blood was collected in tubes containing K2EDTA as an anticoagulant, and the tubes were centrifuged and the plasma fractions collected and frozen. After a one-week washout period, the same Beagle dogs were dosed orally with SX-576 in lipid based excipient Gelucire® 44/14 (Gattefosse) at a dose level of 5 mg/kg. Blood samples were then taken and plasma fractions collected as previously described. Prior to analysis, the plasma samples were thawed and diluted 1:3 into acetonitrile containing 1 μM of compound 153 as an internal standard. The resulting samples were centrifuged and the supernatant analyzed by LC-MS monitoring in multiple reaction monitoring mode. The samples were run concomitantly with a calibration curve of SX-576 in the same internal standard solution.
The lipid based excipient Gelucire® 44/14 is a self-emulsifying drug delivery system (SEDDS) that is able to solubilize both SX-517 and SX-576 into aqueous solutions via micellular formation. […] Therefore, lipid-based emulsifiers are important excipients for the oral delivery of SX-576.

The target of data set [5] is T1, CXCR2. Nature of the data set: β-arrestin recruitment, β-galactosidase fragment complementation (DiscoveRx). A general note: Arrestin recruitment assays detect the binding of arrestin to an activated receptor.
Target sequence in this assay (P25025 whole entry, species assumed): as the sequence (P25025 whole entry) above
The target in data set [6] is T1, CXCR2. Description: 125I-IL-8 radioligand binding inhibition. Conditions: concentrations up to 10 μM. The source says: In vitro experiments, in addition to those measuring calcium release from human PMNs, provided evidence that the mechanism of action of Compounds 1 and 2 are most consistent with an allosteric (non-competitive) mode of action.
Target sequence in this assay (P25025 whole entry): as above
Another data set in a line: Aqueous solubility. The data set is classed as physicochemical.
Data set [7] has as its target T1, CXCR2. Nature of the data set: Wash-resistant inhibition of GROα-mediated calcium response after inhibitor washout. Particulars: 0.4, 2, 10 μM, 30 min incubation, washed, up to 6 h after washout. The data set is classed as cell-based.
Target sequence in this assay (P25025 whole entry): as above
Experimental: The cells were washed and resuspended in RPMI/2% serum (serum was obtained from the same donor as the neutrophils). The concentration of the neutrophil suspension was 10^7 cells/mL. […] The neutrophils were washed and resuspended in RPMI/2% serum and maintained at room temperature. At 30 minutes before each time point, a 56.25 μL aliquot of the neutrophils were removed and loaded for 30 minutes at room temperature in the dark with FLIPR-3 reagent (262.5 μL per tube).
Data set [8] concerns neutrophil influx. Description: Murine air pouch model of neutrophil chemotaxis (i.v.). Particulars: i.v., 0.02, 0.05, 0.2 and 1.0 mg/kg. The data set is classed as in vivo, male CD-1 mice. As to the method: The procedure was performed by forming an air pouch on the backs of male CD-1 mice via the subcutaneous injection of air (2 mL). The next day, an additional subcutaneous injection of air (1.5 mL) was performed to reinflate the air pouch. The mice were given either vehicle control (dimethylformamide/PEG400/saline) or test compound solubilized in vehicle via tail vein injection. After 30 minutes, either sterile phosphate buffered saline (PBS, 1 ml) or 2% carrageenan in sterile PBS (1 mL) was injected into the air pouch. After 4 hours, the mice were sedated with ketamine, and sacrificed by cervical dislocation. The exudate in the air pouch was collected by syringe, with an additional 2 mL wash with sterile PBS. The neutrophils were stained with trypan blue and counted on a hemocytometer under 20× magnification.

The next data set concerns pulmonary inflammation. Nature of the data set: Ozone rat model of pulmonary inflammation. The data set is classed as in vivo, Sprague-Dawley rats. Particulars: 1 mg/kg i.v., 1 ppm ozone, BALF at 24 hours. As to the method:
Activity in this model of pulmonary inflammation would provide direct relevance towards the treatment of a number of pulmonary inflammatory diseases, including chronic obstructive pulmonary disease (COPD) and bronchopulmonary dysplasia (BPD). In this experiment, Sprague-Dawley rats (n=4 per cohort) were dosed intravenously at t=0 with either vehicle (negative and positive groups, dimethylformamide/PEG400/saline, 40:40:20) or SX-576 (1 mg/kg). The rats were then placed in air (negative group) or 1 ppm ozone (positive and SX-576 groups) for 4 hours. The rats were dosed again at t=5 and 9 hours. The rats were then sacrificed at t=24 hours, and the bronchoalveolar lavage fluid (BALF) was collected. The cells were spun down, stained with Wright-Giemsa and counted. In the negative groups, no neutrophils were observed when stained. As a measure of lung leakage/damage, protein levels were quantified in BALF by Bradford protein assay analysis.

Entries after “also recorded” stand apart in the source; their conditions may differ. Where two headings read alike, the source gives them in different places.

The values that follow come from patent publication US8981106B2, “Pyrimidinecarboxamides as CXCR2 modulators” (Syntrix Biosystems, Inc., priority 2009, dated 2015).

By IC50 is commonly meant the concentration at which inhibition is half-maximal.

Consider `O=C(Nc1ccc(F)cc1)c1ccc(SCc2ccccc2B(O)O)nc1` [Compound 1, 6-(2-borono-2-yl-benzylsulfanyl)-N-(4-fluoro-phenyl)-nicotinamide], for which the “total neutrophil counts in the blood” value with neutrophil influx [1] is “not significantly changed”. Moreover, in the data set with neutrophil influx [1] (oral dose 0.2 mg/kg), the “attenuation of neutrophil influx” value is “about 50%”. The neutrophil influx entry with neutrophil influx [1] (0.005 and 0.2 (mg/kg)) is listed as “decrease of neutrophil influx”. Besides, the “neutrophil influx at high oral dose” value in the data set with neutrophil influx [1] (doses in excess of 10 mg/kg) was “increase in neutrophil influx”. For the same compound, the “Magnitude of Agonist Response (% of GROα only Control)” value on CXCR2 [2] is “did not show agonist activity”. Besides, the half-maximal inhibitory concentration (IC50) on CXCR2 [3] (human neutrophils, 25 nM GROα, read-out: IC50) was found to be 38 ± 3 nM. Further, at CXCR2 [3] (in vitro, stated in the binding example, read-out: IC50 in vitro), the 50% inhibitory concentration (IC50) was around 60 nM. In addition, the “plasma level when dosed without excipient” value in data set [4] was “undetected in plasma”. On CXCR2 [5], the “activity on β-arrestin complexation with CXCR2 in the absence of IL8” value was “inverse agonists” and the “inhibition of β-arrestin recruitment following CXCR2 activation with IL8” value is on record as “inhibited arrestin recruitment”. Besides, the “displacement of radiolabeled IL-8 binding to CXCR2 receptors” value on CXCR2 [6] is given as “unable to significantly displace”. In addition, in the data set “Aqueous solubility”, the aqueous solubility entry is recorded as “poor aqueous solubility”.

As to `O=C(Nc1ccc(F)cc1)c1ccc(SCc2cc(OC(F)(F)F)ccc2B(O)O)nc1` [Compound 2, 6-(2-boronic acid-5-trifluoromethoxy-benzylsulfanyl)-N-(4-fluoro-phenyl)-nicotinamide], the “total neutrophil counts in the blood” value in the data set on neutrophil influx [1] was “not significantly changed”. Besides, the “attenuation of neutrophil influx” value with neutrophil influx [1] (oral dose 0.05 mg/kg) is listed as “about 50%”. Besides, the neutrophil influx entry in the data set with neutrophil influx [1] (0.05 mg/kg) is “decrease of neutrophil influx”. The “neutrophil influx at high oral dose” value with neutrophil influx [1] (doses in excess of 1 mg/kg) is on record as “increase in neutrophil influx”. For the same compound, the “Magnitude of Agonist Response (% of GROα only Control)” value on CXCR2 [2] amounted to 100%. Moreover, the “bioavailability following oral administration” value in data set [4] (5 mg/kg oral in Gelucire 44/14) is listed as “improved the bioavailability”. The “plasma level when dosed without excipient” value in [4] was “undetected in plasma”. Moreover, at CXCR2 [7], the “wash-resistant inhibition of GROα mediated intracellular calcium release” value was “dose-dependent and wash-resistant inhibition”. For the same compound, the neutrophil influx result in the data set with neutrophil influx [8] is reported as “significantly attenuate neutrophil influx”. Further, the “activity on β-arrestin complexation with CXCR2 in the absence of IL8” value at CXCR2 [5] was “inverse agonists”. The “inhibition of β-arrestin recruitment following CXCR2 activation with IL8” value on CXCR2 [5] (listed as SX-576) is given as “inhibited arrestin recruitment; also recorded: more potent inhibitor than SX-517, comparable to the diarylurea SB225002”. Also, the aqueous solubility entry in the data set “Aqueous solubility” is recorded as “poor aqueous solubility”. Also, in the data set with pulmonary inflammation, the “influx of macrophages into the lungs” value is “significantly decreased”, the “influx of neutrophils into the lungs” value is listed as “significantly decreased” and the “ozone-induced lung damage (protein levels in the BALF)” value was “protected against ozone-induced lung damage”.
